Laboratory results: patent US20240216549A1, “ENHANCEMENT OF TREATMENT WITH IMMUNOTHERAPEUTIC AGENTS” (ACT THERAPEUTICS LTD, priority 2021, published 2024)

Tested on: subcutaneous prostate cancer model (PC3)
Experiment: Tumour specific uptake of Evans Blue vs. Enhancement MI
Assay type: in vivo, mice
Settings: ACT, Enhancement 0.5 MHz MI 0.2, compared to MI=0 (no ultrasound); 30 min after treatment
Method: To investigate the effect of MI variance of the US Enhancement field, tumour specific uptake of Evans Blue (EB, fluorescent dye) has been investigated in a subcutaneous prostate cancer model (PC3) in mice. Five groups with Enhancement insonation MIs of 0, 0.1, 0.2, 0.3 and 0.4 were investigated (N=3 animals per group). […] 30 min after treatment, the tumours were excised and the amount of EB was measured by spectrophotometry at 620 nm.

Cc1cc(-c2ccc(/N=N/c3ccc4c(S(=O)(=O)O)cc(S(=O)(=O)O)c(N)c4c3O)c(C)c2)ccc1/N=N/c1ccc2c(S(=O)(=O)O)cc(S(=O)(=O)O)c(N)c2c1O [Evans Blue]
increase in tumour specific uptake: ~60%
